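How tested: cells in 96-well plates exposed to compound for 48 hours at five concentrations. GI50 = concentration required for 50% inhibition of growth.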 Active and inactive are the calls of the source. Rule as the data show it: active = GI50 up to about 1.1 µM and inactive = higher.
How the values were obtained:
Assay in all cases: inhibition of tumour cell growth, NCI panel, 48 h
HCT-116 = tested on: HCT-116
OVCAR-3 = tested on: OVCAR-3
EKVX = tested on: EKVX
MDA-MB-231 = tested on: MDA-MB-231
MDA-N = tested on: MDA-N
NCI-H460 = tested on: NCI-H460
MOLT-4 = tested on: MOLT-4
RXF 393 = tested on: RXF 393
SN12C = tested on: SN12C
IGROV-1 = tested on: IGROV-1
K562 = tested on: K562
SNB-75 = tested on: SNB-75
U-251 = tested on: U-251
A549 = tested on: A549
OVCAR-4 = tested on: OVCAR-4
M14 = tested on: M14
A498 = tested on: A498
786-0 = tested on: 786-0
HCC 2998 = tested on: HCC 2998
HL-60 = tested on: HL-60

Measured: GI50

CC(C)(C)c1ccc(O)c(C[N+](C)(C)C)c1
inactive: HCT-116 > 100 µM | OVCAR-3 68.9 µM | EKVX 93.1 µM | MDA-MB-231 > 100 µM | MDA-N > 100 µM | NCI-H460 > 100 µM | MOLT-4 > 100 µM | RXF 393 > 100 µM | SN12C > 100 µM | IGROV-1 > 100 µM | K562 95.5 µM | SNB-75 > 100 µM | U-251 > 100 µM | A549 > 100 µM | OVCAR-4 > 100 µM | M14 > 100 µM | A498 47.5 µM | 786-0 > 100 µM

NNC(=O)Cn1c2ccc(Br)cc2c2nc3ccccc3nc21
inactive: OVCAR-3 23.2 µM | EKVX 9.59 µM | MDA-MB-231 > 100 µM | MDA-N > 100 µM | MOLT-4 11.7 µM | RXF 393 23.2 µM | SN12C > 100 µM | IGROV-1 31 µM | K562 33.8 µM | SNB-75 > 100 µM | U-251 43.7 µM | A549 94.8 µM | M14 > 100 µM | A498 47.1 µM | 786-0 17.9 µM

Cc1ccc2nc(N/N=C/c3ccc(C)s3)cc(C)c2c1
inactive: HCT-116 3.7 µM | OVCAR-3 6.24 µM | HCC 2998 4.69 µM | EKVX 5.7 µM | MDA-MB-231 16.1 µM | MDA-N 7.8 µM | MOLT-4 5.75 µM | RXF 393 13.3 µM | SN12C 12.7 µM | IGROV-1 6.87 µM | K562 3.99 µM | SNB-75 > 10 µM | U-251 9.51 µM | A549 6.79 µM | HL-60 4.71 µM | OVCAR-4 10.3 µM | M14 10.2 µM | 786-0 3.37 µM

O=C(c1ccccc1)n1[nH]c(=O)n(-c2ccc(Cl)cc2)c1=O
inactive: HCT-116 > 100 µM | OVCAR-3 > 100 µM | HCC 2998 > 100 µM | EKVX > 100 µM | MDA-MB-231 > 100 µM | MDA-N > 100 µM | NCI-H460 > 100 µM | MOLT-4 > 100 µM | RXF 393 > 100 µM | SN12C > 100 µM | IGROV-1 > 100 µM | K562 > 100 µM | SNB-75 > 100 µM | U-251 > 100 µM | A549 > 100 µM | HL-60 > 100 µM | OVCAR-4 > 100 µM | M14 > 100 µM | 786-0 > 100 µM

Cc1cc(S(=O)(=O)N/C(=C(\C#N)C(=O)c2ccccc2)[n+]2ccc(N(C)C)cc2)c([S-])cc1Cl
inactive: HCT-116 37.2 µM | OVCAR-3 > 100 µM | EKVX 32 µM | MDA-MB-231 > 100 µM | MDA-N > 100 µM | NCI-H460 > 100 µM | MOLT-4 60.1 µM | RXF 393 > 100 µM | SN12C > 100 µM | IGROV-1 88.3 µM | K562 > 100 µM | U-251 > 100 µM | A549 > 100 µM | HL-60 > 100 µM | OVCAR-4 69.8 µM | M14 > 100 µM | A498 32.4 µM | 786-0 > 100 µM

CC(=O)c1cccc(NC(=O)/C(=N\NC(=S)NN)C2C(=O)Nc3ccccc3[S+]2[O-])c1 (configuration not stated)
inactive: HCT-116 > 100 µM | OVCAR-3 > 100 µM | EKVX 39.1 µM | MDA-MB-231 > 100 µM | MDA-N > 100 µM | MOLT-4 > 100 µM | RXF 393 > 100 µM | SN12C > 100 µM | IGROV-1 > 100 µM | K562 > 100 µM | SNB-75 > 100 µM | U-251 > 100 µM | A549 > 100 µM | HL-60 > 100 µM | M14 > 100 µM | A498 > 100 µM | 786-0 > 100 µM

O=C(Oc1c(Br)cc(Br)cc1C(=O)Oc1ccccc1)C(=O)Oc1c(Br)cc(Br)cc1C(=O)Oc1ccccc1
active: HL-60 < 0.01 µM
inactive: HCT-116 14.4 µM | OVCAR-3 24.3 µM | HCC 2998 31 µM | EKVX 26.2 µM | MDA-MB-231 12.1 µM | MDA-N 27.5 µM | NCI-H460 > 100 µM | MOLT-4 14.9 µM | RXF 393 12.9 µM | SN12C 30.3 µM | IGROV-1 26.7 µM | K562 12.7 µM | U-251 13.1 µM | A549 14.5 µM | M14 34.1 µM | 786-0 19.6 µM

CC(=O)CCC1(C(=O)OCC(C)C)CCCC1=O (configuration not stated)
inactive: HCT-116 > 100 µM | OVCAR-3 63.4 µM | EKVX > 100 µM | MDA-MB-231 > 100 µM | MDA-N > 100 µM | NCI-H460 > 100 µM | MOLT-4 > 100 µM | RXF 393 > 100 µM | SN12C > 100 µM | IGROV-1 > 100 µM | K562 > 100 µM | SNB-75 > 100 µM | U-251 > 100 µM | A549 > 100 µM | HL-60 > 100 µM | OVCAR-4 > 100 µM | M14 > 100 µM | 786-0 > 100 µM

CSC(SC)=C1C(=O)NN=C1C
inactive: HCT-116 > 100 µM | OVCAR-3 > 100 µM | HCC 2998 > 100 µM | EKVX > 100 µM | MDA-MB-231 > 100 µM | MDA-N > 100 µM | NCI-H460 > 100 µM | MOLT-4 > 100 µM | RXF 393 > 100 µM | SN12C > 100 µM | IGROV-1 > 100 µM | K562 > 100 µM | U-251 > 100 µM | A549 > 100 µM | HL-60 > 100 µM | OVCAR-4 > 100 µM | M14 > 100 µM | 786-0 > 100 µM

CC(=O)OCC1OC(n2c(-c3ccccc3)c(/N=N/c3ccccc3)c(C)c(C#N)c2=S)C(OC(C)=O)C(OC(C)=O)C1OC(C)=O (configuration not stated)
inactive: HCT-116 > 100 µM | OVCAR-3 > 100 µM | HCC 2998 > 100 µM | MDA-MB-231 > 100 µM | MDA-N > 100 µM | NCI-H460 > 100 µM | MOLT-4 > 100 µM | RXF 393 > 100 µM | SN12C > 100 µM | IGROV-1 > 100 µM | K562 > 100 µM | SNB-75 > 100 µM | U-251 > 100 µM | A549 > 100 µM | HL-60 > 100 µM | OVCAR-4 > 100 µM | M14 > 100 µM | 786-0 > 100 µM

Cc1cc(Cl)ccc1NC(=O)/C(Cl)=C(/Cl)C(=O)O
inactive: HCT-116 19 µM | OVCAR-3 18.4 µM | HCC 2998 17.9 µM | EKVX 19.1 µM | MDA-MB-231 21.7 µM | MDA-N 24.1 µM | NCI-H460 > 100 µM | RXF 393 19.6 µM | SN12C 18.1 µM | K562 31.8 µM | SNB-75 29.9 µM | U-251 19 µM | A549 48.8 µM | HL-60 25.7 µM | M14 28.4 µM | 786-0 23.1 µM

COC(=O)/C(C#N)=C1\NC(=O)CC(c2ccccc2)C1C#N (configuration not stated)
inactive: HCT-116 > 100 µM | OVCAR-3 > 100 µM | HCC 2998 > 100 µM | EKVX > 100 µM | MDA-MB-231 > 100 µM | MDA-N > 100 µM | NCI-H460 > 100 µM | MOLT-4 > 100 µM | RXF 393 > 100 µM | SN12C > 100 µM | IGROV-1 > 100 µM | K562 > 100 µM | SNB-75 > 100 µM | A549 > 100 µM | HL-60 > 100 µM | OVCAR-4 > 100 µM | M14 > 100 µM | 786-0 > 100 µM

CCN(CC)c1ccc2cc(C(=O)Nc3ccccc3)c(=N)oc2c1
inactive: HCT-116 > 100 µM | HCC 2998 > 100 µM | EKVX > 100 µM | MDA-MB-231 > 100 µM | MDA-N > 100 µM | NCI-H460 > 100 µM | MOLT-4 > 100 µM | RXF 393 > 100 µM | SN12C > 100 µM | IGROV-1 > 100 µM | K562 > 100 µM | SNB-75 > 100 µM | U-251 > 100 µM | A549 > 100 µM | HL-60 > 100 µM | OVCAR-4 > 100 µM | M14 > 100 µM | 786-0 > 100 µM

COc1cc([N+](=O)[O-])c(OC)c2c(Nc3ccc(S(=O)(=O)O)c4cc(S(=O)(=O)O)cc(S(=O)(=O)O)c34)cc(C)nc12
inactive: HCT-116 > 100 µM | OVCAR-3 > 100 µM | EKVX > 100 µM | MDA-MB-231 > 100 µM | MDA-N > 100 µM | MOLT-4 > 100 µM | RXF 393 > 100 µM | SN12C > 100 µM | IGROV-1 > 100 µM | SNB-75 > 100 µM | U-251 > 100 µM | A549 > 100 µM | HL-60 > 100 µM | M14 > 100 µM | A498 > 100 µM | 786-0 > 100 µM

NC(Cc1ccc(B(O)O)cc1)C(=O)NC(CO)CO (configuration not stated)
inactive: HCT-116 > 100 µM | OVCAR-3 > 100 µM | HCC 2998 > 100 µM | EKVX > 100 µM | MDA-MB-231 > 100 µM | MDA-N > 100 µM | NCI-H460 > 100 µM | MOLT-4 > 100 µM | RXF 393 67.6 µM | SN12C > 100 µM | IGROV-1 > 100 µM | K562 > 100 µM | SNB-75 > 100 µM | U-251 > 100 µM | A549 > 100 µM | OVCAR-4 > 100 µM | M14 > 100 µM | 786-0 > 100 µM
